Experimental findings from US12139492B2 (Endotarget Inc., priority 2021, dated 2024) are described below.

A value given as a limit tells only on which side of the number the result lay.

One experiment deals with BTK (Homo sapiens, UniProt Q06187). Put plainly: Degradation of BTK protein in Namalwa cells (Western blot; DC50, Dmax). As to conditions: for DC50: read-out: DC50 (BTK degradation), concentration giving 50% reduction of BTK expression level, cell line not given; for Dmax: read-out: Dmax (BTK degradation). In general terms: A western blot detects proteins with antibodies after separation by electrophoresis.

A further experiment concerns Mino cells. Put plainly: Antiproliferative effect, MTS cell viability assay, Mino cells. The note with it: Homo sapiens, MINO, Mino mantle cell lymphoma cells; read-out: IC50 (anti-proliferation) Mino cells. The format is cell-based. A digest of the protocol: (§1)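 Cells were exposed to compound at 0, 0.001, 0.01, 0.1, 1 and 10 μM for 72 h. Viability was then measured by MTS assay, reading formazan produced by metabolically active cells as absorbance at 490 nm.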
A general note: Formazan colour is commonly taken as a measure of viable cells.

In another experiment the test system is JeKo-1 cells. Put plainly: Antiproliferative effect, MTS cell viability assay, JeKo-1 cells. It counts as cell-based. As to conditions: Homo sapiens; JeKo-1 mantle cell lymphoma cells; read-out: IC50 (anti-proliferation) JeKO-1 cells. A digest of the protocol:
as §1

BTK, sequence (Q06187 whole entry): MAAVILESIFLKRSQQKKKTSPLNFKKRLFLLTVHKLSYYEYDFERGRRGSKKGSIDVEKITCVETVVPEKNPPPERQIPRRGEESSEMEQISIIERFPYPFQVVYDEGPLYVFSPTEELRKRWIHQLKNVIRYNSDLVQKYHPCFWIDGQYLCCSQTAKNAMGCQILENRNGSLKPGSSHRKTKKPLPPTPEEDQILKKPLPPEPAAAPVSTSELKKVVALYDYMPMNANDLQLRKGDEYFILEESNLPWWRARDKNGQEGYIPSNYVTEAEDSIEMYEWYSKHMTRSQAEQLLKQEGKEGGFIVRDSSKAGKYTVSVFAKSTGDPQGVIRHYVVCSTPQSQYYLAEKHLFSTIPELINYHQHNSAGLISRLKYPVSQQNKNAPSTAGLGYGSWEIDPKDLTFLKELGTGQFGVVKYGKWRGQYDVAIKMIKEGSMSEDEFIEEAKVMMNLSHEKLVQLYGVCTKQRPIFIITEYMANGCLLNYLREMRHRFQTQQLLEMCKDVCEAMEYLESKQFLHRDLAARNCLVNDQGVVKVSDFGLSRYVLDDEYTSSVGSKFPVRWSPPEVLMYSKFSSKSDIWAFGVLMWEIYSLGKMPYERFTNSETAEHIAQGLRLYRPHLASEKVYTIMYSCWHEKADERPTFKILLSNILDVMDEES

Usually DC50 stands for the midpoint of the concentration-degradation curve. The Dmax is the largest share of the target that was removed. In the case of `NC(=O)c1c(-c2ccc(Oc3ccccc3)cc2)nn2c1NCC[C@H]2C1CCN(C2CCN(C(=O)N3CCC(CN4CCC(c5ccc6c(c5)CN(C5CCC(=O)NC5=O)C6=O)CC4)CC3)CC2)CC1` (stereo partly drawn) [Compound 396, (7S)-7-(1′-(4-((4-(2-(2,6-dioxopiperidin-3-yl)-1-oxoisoindolin-5-yl)piperidin-1-yl)methyl)piperidine-1-carbonyl)-[1,4′-bipiperidin]-4-yl)-2-(4-phenoxyphenyl)-4,5,6,7-tetrahydropyrazolo[1,5-a]pyrimidine-3-carboxamide], at BTK, the half-maximal degradation concentration (DC50) was 10 to 50 nM. In addition, the Dmax on BTK is greater than 75%. Moreover, the IC50 in the experiment on Mino cells is 1000 to 10000 nM; in the experiment with JeKo-1 cells it was greater than 10000 nM.

`NC(=O)c1c(-c2ccc(Oc3ccccc3)cc2)nn2c1NCC[C@H]2C1CCN(CC2CCN(C(=O)N3CCN(c4ccc5c(c4)CN(C4CCC(=O)NC4=O)C5=O)CC3)CC2)CC1` (stereo partly drawn) [Compound 398, (7S)-7-(1-((1-(4-(2-(2,6-dioxopiperidin-3-yl)-1-oxoisoindolin-5-yl)piperazine-1-carbonyl)piperidin-4-yl)methyl)piperidin-4-yl)-2-(4-phenoxyphenyl)-4,5,6,7-tetrahydropyrazolo[1,5-a]pyrimidine-3-carboxamide]: at BTK, the DC50 was greater than 50 nM and the Dmax was greater than 50%. In the experiment on Mino cells, the IC50 is greater than 10000 nM. The IC50 in the experiment on JeKo-1 cells was greater than 10000 nM.

Take `NC(=O)c1c(-c2ccc(Oc3ccccc3)cc2)nn2c1NCC[C@H]2C1CCN(CC2CCN(C(=O)N3CCN(Cc4ccc5c(c4)C(=O)N(C4CCC(=O)NC4=O)C5=O)CC3)CC2)CC1` (stereo partly drawn) [Compound 399, (7S)-7-(1-((1-(4-((2-(2,6-dioxopiperidin-3-yl)-1,3-dioxoisoindolin-5-yl)methyl)piperazine-1-carbonyl)piperidin-4-yl)methyl)piperidin-4-yl)-2-(4-phenoxyphenyl)-4,5,6,7-tetrahydropyrazolo[1,5-a]pyrimidine-3-carboxamide]: the DC50 on BTK is greater than 50 nM. On BTK, the Dmax was greater than 50%. Besides, the values for the IC50 in the experiment with Mino cells and in the experiment with JeKo-1 cells were 1000 to 10000 nM and greater than 10000 nM, respectively.

Consider `NC(=O)c1c(-c2ccc(Oc3ccccc3)cc2)nn2c1NCC[C@H]2C1CCN(CC2CCN(C(=O)N3CCN(Cc4ccc5c(c4)CN(C4CCC(=O)NC4=O)C5=O)CC3)CC2)CC1` (stereo partly drawn) [Compound 400, (7S)-7-(1-((1-(4-((2-(2,6-dioxopiperidin-3-yl)-1-oxoisoindolin-5-yl)methyl)piperazine-1-carbonyl)piperidin-4-yl)methyl)piperidin-4-yl)-2-(4-phenoxyphenyl)-4,5,6,7-tetrahydropyrazolo[1,5-a]pyrimidine-3-carboxamide], for which, on BTK, the half-maximal degradation concentration (DC50) is greater than 50 nM and the Dmax was greater than 50%. Further, in the experiment with Mino cells, the IC50 was greater than 10000 nM. In addition, the IC50 in the experiment on JeKo-1 cells is greater than 10000 nM.

With `NC(=O)c1c(-c2ccc(Oc3ccccc3)cc2)nn2c1NCC[C@H]2C1CCN(CC2CCN(C(=O)N3CCN(C4CCN(c5ccc6c(c5)C(=O)N(C5CCC(=O)NC5=O)C6=O)CC4)CC3)CC2)CC1` (stereo partly drawn) [Compound 401], on BTK, the DC50 lay in the range of 10 to 50 nM and the Dmax was greater than 90%. Besides, the IC50 in the experiment with Mino cells lay within 1000 to 10000 nM. In addition, in the experiment on JeKo-1 cells, the IC50 was in the range of 1000 to 10000 nM.

`NC(=O)c1c(-c2ccc(Oc3ccccc3)cc2)nn2c1NCC[C@H]2C1CCN(CC2CCN(C(=O)N3CCN(C4CCN(c5ccc6c(c5)CN(C5CCC(=O)NC5=O)C6=O)CC4)CC3)CC2)CC1` (stereo partly drawn) [Compound 402, (7S)-7-(1-((1-(4-(1-(2-(2,6-dioxopiperidin-3-yl)-1-oxoisoindolin-5-yl)piperidin-4-yl)piperazine-1-carbonyl)piperidin-4-yl)methyl)piperidin-4-yl)-2-(4-phenoxyphenyl)-4,5,6,7-tetrahydropyrazolo[1,5-a]pyrimidine-3-carboxamide]: at BTK, the DC50 is 10 to 50 nM and the Dmax is greater than 90%. Also, the IC50 in the experiment with Mino cells was less than 1000 nM. For the same compound, in the experiment on JeKo-1 cells, the IC50 fell in the range of 1000 to 10000 nM.
